This is an account of results in patent EP0559893A1, “XANTHINE DERIVATIVE” (priority 1990, dated 1992).

In data set [1] the test system is calvaria. Briefly: Inhibitory effect on bone absorption (PTH-stimulated calcium release from cultured calvaria). The following applies: test compound 10^-4 M, PTH 10^-8 M; for inhibition at 100 µM: Mus musculus, bone absorption, 96 hours, read-out: Inhibition Rate (%); for Ca Concentration (mg/dl) (n = 6, mean +/- S.E.M.): culture collected after 96 hours; for bone absorption by PTH (result in words): Duncan's test. Type of data set: cell-based, mouse. The procedure: The calvaria was excised from a newborn dd mouse (5 to 6 days old) under sterile conditions. The calvaria was washed with a modified Dulbecco phosphate buffer physiological saline solution containing neither calcium nor magnesium (a product of Gibco Oriental), and divided into two parts along the center suture.
The culture medium was renewed 48 hours after the start of culturing. For determining the amount of calcium liberated from the bone by the action of PTH (bone absorption), the calcium content in the culture as collected after 96 hours of culturing was measured. The calcium concentration in the culture was measured with Calcium C Test Wako (manufactured by Wako Pure Chemical Industries, Ltd.). The bone absorption rate was calculated using the following equation. The test of significance of the inhibitory effect on bone absorption was performed by the Duncan's multi-weight comparative test. Inhibition rate (%) = [(CP - CD )/(CP - C₀)] × 100 [formula] CD indicates the total calcium concentration in the culture treated with both the test compound and PTH; CP indicates the total calcium concentration in the culture treated with only PTH (control); and C₀ indicates the total calcium concentration in the culture containing neither the test compound nor PTH.

Data set [2] has as its system dd male mice. Briefly: Acute toxicity test. Type of data set: in vivo. The following applies: oral administration; mortality observed 7 days after the administration. An excerpt:
Three dd male mice having a weight of 20 ± 1 g were used for one group. A test compound was orally administered to the mice.
The mortality was observed 7 days after the administration to determine the minimum lethal dose (MLD).

Data set [3] deals with T1, Adenosine A₁ receptor (Cavia porcellus, UniProt P47745).
T1 sequence (P47745 1-326): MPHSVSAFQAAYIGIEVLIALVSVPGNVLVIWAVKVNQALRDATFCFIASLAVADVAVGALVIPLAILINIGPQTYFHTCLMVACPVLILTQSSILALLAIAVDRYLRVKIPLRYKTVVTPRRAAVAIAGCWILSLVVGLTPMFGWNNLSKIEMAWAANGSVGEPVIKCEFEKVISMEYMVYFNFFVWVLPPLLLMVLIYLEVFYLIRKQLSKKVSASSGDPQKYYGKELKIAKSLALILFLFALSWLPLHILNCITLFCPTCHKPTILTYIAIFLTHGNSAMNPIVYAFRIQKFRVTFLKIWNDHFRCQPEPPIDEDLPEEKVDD
Briefly: Adenosine A1 receptor binding test (3H-CHA binding). The following applies: for inhibition at 100 µM: read-out: A1 Receptor Inhibition (%) 10^-4 M; for inhibition at 10 µM: read-out: A1 Receptor Inhibition (%) 10^-5 M.

In data set [4] the target is Adenosine A₂ receptor (Rattus norvegicus, UniProt P30543). The data set can be described thus: Adenosine A2 receptor binding test (3H-NECA binding). To be noted: for Ratio of Affinity with Receptor (A2 /A1 ): A2 (rat corpus striatum) versus A1 (guinea pig cerebrum); for inhibition at 100 µM: read-out: A2 Receptor Inhibition (%) 10^-4 M; for inhibition at 10 µM: read-out: A2 Receptor Inhibition (%) 10^-5 M.
Sequence of Adenosine A₂ receptor (P30543 whole entry): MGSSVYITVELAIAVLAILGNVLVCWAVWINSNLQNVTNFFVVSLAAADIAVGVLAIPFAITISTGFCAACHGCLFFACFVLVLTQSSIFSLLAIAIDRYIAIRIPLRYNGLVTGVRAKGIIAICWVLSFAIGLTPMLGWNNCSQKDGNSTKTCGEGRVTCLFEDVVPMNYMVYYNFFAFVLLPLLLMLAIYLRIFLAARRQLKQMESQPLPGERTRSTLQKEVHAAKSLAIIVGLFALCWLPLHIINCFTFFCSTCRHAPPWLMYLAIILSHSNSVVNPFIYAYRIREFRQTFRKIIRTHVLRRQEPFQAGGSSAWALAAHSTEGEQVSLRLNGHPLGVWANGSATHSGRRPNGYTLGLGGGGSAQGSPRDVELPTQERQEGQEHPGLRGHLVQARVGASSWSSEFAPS

Data set [5] has as its system ddY male mice. Briefly: Mouse locomotor activity. Type of data set: in vivo. To be noted: po, enhancement of locomotor activity, measured for 3 hours after administration, read-out: Minimum Effective Dose (mg/kg, p.o.). On the procedure: Five ddY male mice having a weight of 19 to 21 g were used for one group. A test compound and theophylline were orally administered to the mice and then the mice were out in an acrylic test cage (length 26 × width 45 × height 25 cm). The amount of locomotor activity of each mouse was measured with Automex II (manufactured by Columbus) for 3 hours after the administration. Test of significance between the control group and the test compound-administered group was performed by the Student's t-test, and enhancement of the locomotor activity was judged. Furthermore, the minimum effective dose showing a significant difference was determined.

Some results are limits rather than exact numbers.

On to `COc1cc(/C=C/c2nc3c(c(=O)n(C)c(=O)n3C)n2C)cc(OC)c1OC` [Comparative Compound X, 1,3,7-trimethyl-8-[(E)-3,4,5-trimethoxystyryl]xanthine, reference compound], for which, in data set [1], the inhibition – broadly, the change of the read-out against control, counted positive when it falls – at 100 µM is 55%; the “Ca Concentration (mg/dl) (n = 6, mean +/- S.E.M.)” value was determined as 10.32 ± 0.13 mg/dL; the “bone absorption by PTH (result in words)” value is listed as “significantly inhibited bone absorption by PTH”.

As for `CCCn1c(=O)c2nc(/C=C/c3ccccc3)[nH]c2n(CCC)c1=O` [Compound 1, 1,3-Dipropyl-8-(E)-styrylxanthine], the “MLD” value in data set [2] is greater than 300 mg/kg.

Take `CCCn1c(=O)c2c(nc(/C=C/c3ccccc3)n2C)n(CCC)c1=O` [Compound 2, 1,3-Dipropyl-7-methyl-8-(E)-styrylxanthine]: in data set [3], the affinity corresponds to a Ki of 1.4 µM, the inhibition at 100 µM came to 82% and the inhibition at 10 µM was 64%. Further, in data set [4], the “Ratio of Affinity with Receptor (A2 /A1 )” value (from here on “Ratio of Affinity”) was 52, the inhibition at 100 µM was found to be 96% and the inhibition at 10 µM is 95%. The minimal effective dose in data set [5] was found to be 1.25 mg/kg.

With `CCCn1c(=O)c2nc(/C(C)=C/c3ccccc3)[nH]c2n(CCC)c1=O` [Compound 3, 1,3-Dipropyl-8-[(E)-α-methylstyryl]xanthine], the “MLD” value in data set [2] is recorded as greater than 300 mg/kg.

With `CCCn1c(=O)c2c(nc(/C(C)=C/c3ccccc3)n2C)n(CCC)c1=O` [Compound 4, 1,3-Dipropyl-7-methyl-8-[(E)-α-methylstyryl]xanthine], the “MLD” value in data set [2] is greater than 300 mg/kg.

Consider `CCCn1c(=O)c2nc(/C=C/c3ccc(Cl)cc3)[nH]c2n(CCC)c1=O` [Compound 5, 8-[(E)-4-Chlorostyryl]-1,3-dipropylxanthine], for which the “MLD” value in data set [2] was greater than 300 mg/kg.

Take `CCCn1c(=O)c2c(nc(/C=C/c3ccc(Cl)cc3)n2C)n(CCC)c1=O` [Compound 6, 8-[(E)-4-Chlorostyryl]-7-methyl-1,3-dipropylxanthine]: the “MLD” value in data set [2] was greater than 300 mg/kg.

For `CCCn1c(=O)c2nc(/C=C/c3ccc(Cl)c(Cl)c3)[nH]c2n(CCC)c1=O` [Compound 7, 8-[(E)-3,4-Dichlorostyryl]-1,3-dipropylxanthine], the “MLD” value in data set [2] is given as greater than 300 mg/kg.

For the compound `CCCn1c(=O)c2c(nc(/C=C/c3ccc(Cl)c(Cl)c3)n2C)n(CCC)c1=O` [Compound 8, 8-[(E)-3,4-Dichlorostyryl]-1,3-dipropyl-7-methylxanthine], in data set [2], the “MLD” value is greater than 300 mg/kg.

Turning to `CCCn1c(=O)c2nc(/C=C/c3ccc(OC)cc3)[nH]c2n(CCC)c1=O` [Compound 9, 1,3-Dipropyl-8-[(E)-4-methoxystyryl]xanthine], the “MLD” value in data set [2] was greater than 300 mg/kg.

For the compound `CCCn1c(=O)c2c(nc(/C=C/c3ccc(OC)cc3)n2C)n(CCC)c1=O` [Compound 10, 1,3-Dipropyl-8-[(E)-4-methoxystyryl]-7-methylxanthine], in data set [3], the Ki (commonly a measure of affinity in units of concentration, obtained from inhibition or displacement) worked out at 2 µM; the inhibition at 100 µM worked out at 86%; the inhibition at 10 µM was 65%. Also, in data set [4], the “Ratio of Affinity” value is reported as 51, the inhibition at 100 µM was found to be 95% and the inhibition at 10 µM came out at 95%. Besides, the “MLD” value in data set [2] is listed as greater than 300 mg/kg.

In the case of `CCCn1c(=O)c2nc(/C=C/c3ccc(OC)c(OC)c3)[nH]c2n(CCC)c1=O` [Compound 11, 8-[(E)-3,4-Dimethoxystyryl]-1,3-dipropylxanthine], the “MLD” value in data set [2] was greater than 300 mg/kg.

Regarding `CCCn1c(=O)c2c(nc(/C=C/c3ccc(OC)c(OC)c3)n2C)n(CCC)c1=O` [Compound 12, 8-[(E)-3,4-Dimethoxystyryl]-1,3-dipropyl-7-methylxanthine], in data set [3], the Ki turned out to be 3.1 µM, the inhibition at 100 µM stood at 74% and the inhibition at 10 µM stood at 61%. For the same compound, in data set [4], the inhibition at 100 µM worked out at 97% and the inhibition at 10 µM is 96%. Besides, in data set [5], the minimal effective dose turned out to be 0.63 mg/kg. Moreover, the “MLD” value in data set [2] is given as greater than 300 mg/kg.

Consider `CCCn1c(=O)c2nc(/C=C/c3cc(OC)c(OC)c(OC)c3)[nH]c2n(CCC)c1=O` [Compound 13, 1,3-Dipropyl-8-[(E)-3,4,5-trimethoxystyryl]xanthine], for which, in data set [2], the “MLD” value is reported as greater than 300 mg/kg.

`CCCn1c(=O)c2c(nc(/C=C/c3cc(OC)c(OC)c(OC)c3)n2C)n(CCC)c1=O` [Compound 14, 1,3-Dipropyl-7-methyl-8-[(E)-3,4,5-trimethoxystyryl]xanthine]: in data set [3], the affinity, expressed as Ki, was 65 µM; the inhibition at 100 µM was 50%; the inhibition at 10 µM came out at 30%. In data set [4], the “Ratio of Affinity” value came to 4600, the inhibition at 100 µM stood at 92% and the inhibition at 10 µM came to 94%. Besides, the minimal effective dose in data set [5] is 10 mg/kg. Further, in data set [1], the inhibition at 100 µM amounted to 119%; the “bone absorption inhibition rate compared with Comparative Compound X (result in words)” value was “significantly higher than that of Comparative Compound X”; the “Ca Concentration (mg/dl) (n = 6, mean +/- S.E.M.)” value is recorded as 7.66 ± 0.08 ++ mg/dl; the “bone absorption by PTH (result in words)” value is listed as “significantly inhibited bone absorption by PTH”. The “MLD” value in data set [2] is on record as greater than 300 mg/kg.

For `CCCn1c(=O)c2[nH]c(/C=C/c3ccco3)nc2n(CCC)c1=O` [Compound 15, 1,3-Dipropyl-8-[2-(E)-(2-furyl)vinyl]xanthine], the “MLD” value in data set [2] was greater than 300 mg/kg.

Consider `CCCn1c(=O)c2[nH]c(/C=C/c3cccs3)nc2n(CCC)c1=O` [Compound 17, 1,3-Dipropyl-8-[2-(E)-(2-thienyl)vinyl]xanthine], for which, in data set [2], the “MLD” value is greater than 300 mg/kg.

Take `CCCn1c(=O)c2c(nc(/C=C/c3cccs3)n2C)n(CCC)c1=O` [Compound 18, 1,3-Dipropyl-7-methyl-8-[2-(E)-(2-thienyl)vinyl]xanthine]: in data set [2], the “MLD” value was greater than 300 mg/kg.

In the case of `C=CCn1c(=O)c2c(nc(/C=C/c3cc(OC)c(OC)c(OC)c3)n2C)n(CC=C)c1=O` [Compound 24, 1,3-Diallyl-7-methyl-8-[(E)-3,4,5-trimethoxystyryl]xanthine], in data set [3], the inhibition constant Ki was greater than 100 µM, the inhibition at 100 µM stood at 31% and the inhibition at 10 µM came out at 31%. For the same compound, in data set [4], the inhibition at 100 µM is 96% and the inhibition at 10 µM was determined as 93%.

As for `Cn1c(=O)c2[nH]cnc2n(C)c1=O` [Theophylline, theophylline, reference compound], in data set [5], the minimal effective dose came out at 20 mg/kg.
